Here are results for two compounds from patent US12083105B2, “Compositions and methods for treating adult-onset neuronal ceroid lipofuscinosis (Kufs disease)” (CORNELL UNIVERSITY, priority 2020, dated 2024).

For this assay, the system named is ANCL iNs. Nature of the assay: Lipofuscin ELISA in ANCL iNs. Type of assay: cell-based, human. To be noted: compared to control; for lipofuscin ELISA signal: ANCL iNs treated for 56 d (prevention), FIG. 7G; for levels of lipofuscin (ELISA): added to ANCL iNs after 56 days of lipofuscin accumulation, 0, 7, 14, 21 d of treatment, FIG. 7I. The procedure: ANCL patient-derived fibroblasts were treated with 200 μM of L1 or Dfx, or vehicle (0.1% DMSO=Control) for 72 h, before measuring the UV-Vis absorbance spectra of immunoprecipitated CSPα eluted by trypsinization (solid lines). Spectra were re-read after 10 min of 0.1 N HCl treatment (dashed lines). The experiments shown in FIGS. 7B-7I, were conducted using ANCL fibroblasts converted to iNs using BAM+ND1 technique. […] Quantitative immunoblotting was used to measure levels of oligomerized and fully palmitoylated CSPα as well as total SNAP-25. Oligo=oligomers; Palm=palmitoylated. […] The interaction of CSPα with SNAP-25 in ANCL iNs was measured by immunoprecipitating SNAP-25 followed by quantitative immunoblotting of co-immunoprecipitated CSPα (normalized to SNAP-25 IP). Note that mainly CSPα monomers and not oligomers were detected bound to SNAP-25. Control=control sham IP without IgG. […] Turnover of SNAP-25 was determined by cycloheximide chase, while maintaining the iron-chelators or vehicle in the medium. […] In the experiments shown in FIGS. 7E-7G, ANCL iNs treated with L1, Dfx, or vehicle for 56 d and analyzed. […] The levels of lipofuscin were determined by ELISA. In the experiments shown in FIGS. 7H-7I 56 day old untreated ANCL iNs were treated with L1, Dfx, or vehicle, and analyzed. […] Data are from FIG. 7A representative of n=4, FIG. 7B n=4, FIG. 7C n=4, FIG. 7D n=7, FIG. 7F n=4, FIG. 7G n=4, FIG. 7H n=6, FIG. 7I n=3. In FIGS. 7B-7C and FIGS. 7F-7G *P<0.05; **P<0.01; ****P<0.0001 by two-tailed Student's t-test. #P<0.05 by Mann-Whitney-Wilcoxon U test. In FIG. 7D-7C and FIGS. 7H-7I **P<0.01; ***P<0.001; ****P<0.0001 by two-way ANOVA; ##P<0.01; ###P<0.001; ####P<0.0001 by Tukey's multiple comparisons test.
iNs from each well of a 6 well dish were solubilized in 100 μl PBS with 0.1% Triton X-100 for 1 h at 4° C. Post nuclear supernatant collected by centrifugation at 1000 gav for 15 min was used for the assay. These samples were analyzed for lipofuscin content using human lipofuscin competitive ELISA (MyBiosource; MBS7217173). Following the colorimetric reaction, optical density at 450 nm was read from the standard and the sample wells using Synergy H1 Hybrid Reader (BioTek).
Effect of iron chelators on the accumulation of lipofuscin was monitored by ELISA for lipofuscin or based on lipofuscin autofluorescence. […] Effect of iron chelators on the accumulation of ATP5G was also studied.
As a treatment paradigm, iron-chelators were also added post-accumulation of lipofuscin. L1 and Dfx were added to ANCL iNs after 56 days of lipofuscin accumulation, and levels of ATP5G and lipofuscin were compared over the subsequent 3 weeks.
(In an ELISA, binding on a coated surface is turned into a signal by an enzyme label.)

`CC(=O)N(O)CCCCCNC(=O)CCC(=O)N(O)CCCCCNC(=O)CCC(=O)N(O)CCCCCN` [Dfx, N′-[5-(Acetyl-hydroxy-amino)pentyl]-N-[5-[3-(5-aminopentyl-hydroxy-carbamoyl)propanoylamino]pentyl]-N-hydroxy-butane diamide]: the “lipofuscin ELISA signal” value was “significant reduction” and the “levels of lipofuscin (ELISA)” value was “reduced to the levels observed in the prevention experiments”.
The matching figures for `Cc1c(O)c(=O)ccn1C` [L1, 3-hydroxy-1,2-dimethyl-4(1H)-pyridone]: “significant reduction” and “reduced to the levels observed in the prevention experiments”.
